Tests used:
hCdc34 = biological target: T1, hCdc34 (Homo sapiens, UniProt P49427); details: Ceccarelli et al., Cell 145:1075-1087, 2011; cited from earlier work
T1 sequence (P49427 1-236): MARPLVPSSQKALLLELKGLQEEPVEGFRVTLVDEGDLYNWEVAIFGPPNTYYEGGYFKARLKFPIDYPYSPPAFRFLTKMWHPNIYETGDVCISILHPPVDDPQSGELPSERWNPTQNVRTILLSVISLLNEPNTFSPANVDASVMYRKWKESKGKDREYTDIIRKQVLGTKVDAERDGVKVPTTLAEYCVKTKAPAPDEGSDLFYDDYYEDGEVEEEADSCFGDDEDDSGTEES

[1] = tested on: MDA-MB-468-NFkB-Luc2p cell line; test: TNF-α induced NFkB reporter assay (luciferase); type: cell-based; details: 1 h before 10 ng/ml TNF-α for 6 h, FIG. 3; for result in TNF-α induced NFkB reporter assay: tested at 20 μM and 5 μM
Method: The effects of the compounds described herein on the activation of TNF-mediated pathways were assessed using an MDA-MB-468NFkB-Luc2p reporter cell line (FIG. 3). To construct this cell line, MDA-MB-468 cells were transfected with pGL4.32[luc2P/NF-kB-RE/Hygro] vector (Promega) using TransFast transfection reagent (Promega) according to manufacturer's standard protocol. Briefly, cells were grown in RPMI supplemented with 10% FBS and plated onto sterile 6-well plates (Nunc). When cells became ˜75% confluent, media in each well was removed and replaced with 1 mL RPMI (no FBS) containing […] vector and TransFast for 1 h at 37° C. 2 mL of RPMI with FBS is then added to the well and after 24 h, 500 ug/ml of hygromycin was added for selection to generate a stable reporter cell line.
Stable MDA-MB-468-NFkB-Luc2p cells were plated onto optical-bottom, white wall 96-well plates at 10,000 cells per well and allowed to attach overnight. Compounds B1 through B14 were added at 20 μM and 5 μM respectively for 1 h prior to treatment with 10 ng/ml of recombinant human TNF-α for 6 h. Luciferase signal was determined using the Luciferase Assay System (Promega) and a luminometer.

[2] = tested on: Panc-1 (pancreatic cancer) cell line; test: Panc-1 proliferation assay (MTS); type: cell-based; details: for growth rate: 72 h, DMSO control = 100%
Method: (§1) Proliferation assays were conducted to assess the effects of the compounds described herein on the growth rate of neoplastic cells. For each of the proliferation assays described herein, SK-MEL-28, MDA-MB-468 or Panc-1 cells were grown in RPMI supplemented with 10% FBS and plated onto sterile 96-well tissue culture plates at 20,000 cells per well and allowed to attach overnight. Compounds B1 through B14 were added at 20 μM and 10 μM respectively in the SK-MEL-28 proliferation assay (FIG. 1). Compounds B3, B5, B7, B11 and B12 were added at 20 μM and 10 μM respectively for the MDA-MB-468 (FIG. 2A) and Panc-1 proliferation assays (FIG. 2B). Plates were incubated for 72 h (37° C., 5% CO2). Percent viability compared to DMSO control was determined using an MTS assay (CellTiter 96 Aqueous, Promega) according to the manufacturer's standard protocol. The standard used in the SK-MEL-28 assay is MG132, a proteasome inhibitor, at 10 uM concentration. It was used as a positive control for cell killing. All the assays are referenced to DMSO as the control at 100% proliferation.

[3] = tested on: SK-MEL-28 (metastatic melanoma) cell line; test: SK-MEL-28 proliferation assay (MTS, percent viability vs DMSO); type: cell-based; details: 72 h, FIG. 1
Method: as §1

[4] = tested on: MDA-MB-468 (breast cancer) cell line; test: MDA-MB-468 proliferation assay (MTS); type: cell-based; details: for growth rate: 72 h, DMSO control = 100%
Method: as §1

[5] = SK-MEL-28, tested at 20 μM and 10 μM

SMILES	result in TNF-α induced NFkB reporter assay [1]	inhibitory effect on proliferation [3, 5]	growth rate ([4]; MDA-MB-468, 20 μM)	also measured
COCC(=O)N[C@@H](Cc1ccc(-c2cc(Cl)cc(Cl)c2)cc1)[C@H](O)[C@@H](O)C(=O)O [CC0651]				inhibition of hCdc34 (hCdc34): inhibits
CCOCC(=O)NC(Cc1ccc(-c2cc(Cl)cc(Cl)c2)cc1)C(O)C(O)C(=O)OCC (centres unmarked) [Compound B1]	good results			
CCOC(=O)C(O)C(O)C(Cc1ccc(-c2cc(Cl)cc(Cl)c2)cc1)NC(=O)CCl (centres unmarked) [Compound B3]		good inhibitory effect	5.5%	growth rate ([2]; Panc-1, 10 μM): 4.8%; growth rate ([2]; Panc-1, 20 μM): 5.2%; inhibitory effect on proliferation ([2]; Panc-1, at both concentrations (20 μM and 10 μM)): good inhibitory effect; growth rate ([4]; MDA-MB-468, 10 μM): 6.0%; inhibitory effect on proliferation ([4]; MDA-MB-468, at both concentrations (20 μM and 10 μM)): good inhibitory effect
CCOC(=O)C(O)C(O)C(Cc1ccc(-c2cc(Cl)cc(Cl)c2)cc1)NC(=O)[C@H]1CCCO1 (some centres unmarked) [Compound B4]	good results			
CCOC(=O)C(O)C(O)C(Cc1ccc(-c2cc(Cl)cc(Cl)c2)cc1)NC(=O)[C@@H]1CCCN1C(=O)OC(C)(C)C (some centres unmarked) [Compound B5]	good results	good inhibitory effect	33.5%	
CCOC(=O)C(O)C(O)C(Cc1ccc(-c2cc(Cl)cc(Cl)c2)cc1)NC(=O)CNC(=O)OC(C)(C)C (centres unmarked) [Compound B7]		good inhibitory effect		
CCOC(=O)C(O)C(O)C(Cc1ccc(-c2cc(Cl)cc(Cl)c2)cc1)NC(=O)CN (centres unmarked) [Compound B11]		good inhibitory effect		
CCOC(=O)C(O)C(O)C(Cc1ccc(-c2cc(Cl)cc(Cl)c2)cc1)NC(=O)[C@H](C)N (some centres unmarked) [Compound B12]			11.0%	growth rate ([2]; Panc-1, 20 μM): 24.4%; fold more effective than the control ([3]; SK-MEL-28, 20 μM): about 20 fold; inhibitory effect on proliferation ([3]; SK-MEL-28, 20 μM): excellent inhibitory effect; inhibitory effect on TNF-α induced NFkB luciferase signal ([1]; 20 μM): excellent inhibitory effect

From patent US10106491B2, “Substituted biaryl alkyl amides” (BioTheryX, Inc., priority 2011, dated 2018)
